Drawing on PubChem BioAssay AID1745844 (Carcinogenic Potency Database (CPDB), 2022), this text covers TD50 and carcinogen call for 6 compounds.

For the data set, the system named is rodent lifetime carcinogenesis bioassay, tumor incidence TD50. The data set is described as follows: chronic cancer bioassays in animals – CPDB, compiled studies (AID 1745844).

Several values for one entry are separate records, joined by “and”; a condition that tells them apart may be missing. Equal values may be shown once. Activity calls are given as the source filed them. The rule behind the calls is not given here.

As a reminder, the TD50 is the 50% point of the dose-response relation for the toxic effect studied.

With `CCc1ccccc1`, the TD50 is, setting by setting: (mouse, strain B6C3F1, females, inhaled, site: Harderian gland, lesion: adenoma, dosed 103 weeks, study length 104 weeks) 9070 mg/kg/day; (mouse, strain B6C3F1, females, inhaled, site: any site (literature study), lesion: several types, types named in the paper, dosed 103 weeks, study length 104 weeks) 4070 mg/kg/day; (mouse, strain B6C3F1, females, inhaled, site: liver, lesion: hepatocellular adenoma + hepatoblastoma + hepatocellular carcinoma, dosed 103 weeks, study length 104 weeks) 1880 mg/kg/day; (mouse, strain B6C3F1, females, inhaled, site: liver, lesion: hepatocellular adenoma + hepatocellular carcinoma, dosed 103 weeks, study length 104 weeks) 1880 mg/kg/day; (mouse, strain B6C3F1, females, inhaled, site: liver, lesion: hepatocellular adenoma, dosed 103 weeks, study length 104 weeks) 2450 mg/kg/day; (mouse, strain B6C3F1, females, inhaled, site: lung, lesion: alveolar/bronchiolar adenoma + alveolar/bronchiolar carcinoma, dosed 103 weeks, study length 104 weeks) 7950 mg/kg/day. In addition, the TD50 (mouse, strain B6C3F1, males, inhaled, site: any site (literature study), lesion: several types, types named in the paper, dosed 103 weeks, study length 104 weeks) amounted to 2010 mg/kg/day; the TD50 (mouse, strain B6C3F1, males, inhaled, site: liver, lesion: hepatocellular adenoma + hepatoblastoma + hepatocellular carcinoma, dosed 103 weeks, study length 104 weeks) is 9310 mg/kg/day; the TD50 (mouse, strain B6C3F1, males, inhaled, site: lung, lesion: alveolar/bronchiolar adenoma + alveolar/bronchiolar carcinoma, dosed 103 weeks, study length 104 weeks) stood at 1400 mg/kg/day; the TD50 (mouse, strain B6C3F1, males, inhaled, site: lung, lesion: alveolar/bronchiolar adenoma, dosed 103 weeks, study length 104 weeks) was 1680 mg/kg/day; the TD50 (rat, strain Fischer 344, males, inhaled, site: adrenal medulla, lesion: pheochromocytoma benign, bilateral + pheochromocytoma, benign, dosed 104 weeks, study length 104 weeks) came to 125 mg/kg/day; the TD50 (rat, strain Fischer 344, males, inhaled, site: adrenal medulla, lesion: pheochromocytoma benign, bilateral + pheochromocytoma, malignant + pheochromocytoma, benign, dosed 104 weeks, study length 104 weeks) turned out to be 106 mg/kg/day. The TD50 is, setting by setting: (rat, strain Fischer 344, males, inhaled, site: any site (literature study), lesion: several types, types named in the paper, dosed 104 weeks, study length 104 weeks) 53 mg/kg/day; (rat, strain Fischer 344, males, inhaled, site: kidney + testis, lesion: tubule adenoma + tubule carcinoma + interstitial-cell adenoma, bilateral + interstitial-cell adenoma, dosed 104 weeks, study length 104 weeks) 24.6 mg/kg/day; (rat, strain Fischer 344, males, inhaled, site: kidney, lesion: tubule adenoma + tubule carcinoma, dosed 104 weeks, study length 104 weeks) 147 mg/kg/day and 255 mg/kg/day; (rat, strain Fischer 344, males, inhaled, site: kidney, lesion: tubule adenoma, dosed 104 weeks, study length 104 weeks) 232 mg/kg/day and 280 mg/kg/day; (rat, strain Fischer 344, males, inhaled, site: testis, lesion: interstitial-cell adenoma, bilateral + interstitial-cell adenoma, dosed 104 weeks, study length 104 weeks) 24.8 mg/kg/day; (rat, strain Fischer 344, males, inhaled, site: testis, lesion: interstitial-cell adenoma, bilateral, dosed 104 weeks, study length 104 weeks) 23.1 mg/kg/day. For the same compound, the TD50 (rat, strain Sprague-Dawley, females, by gavage, site: any site (literature study), lesion: malignant tumor, dosed 104 weeks, study length 123 weeks) was determined as 1610 mg/kg/day; the TD50 (rat, strain Sprague-Dawley, females, by gavage, site: any site (literature study), lesion: malignant tumor, dosed 104 weeks, study length 141 weeks) was found to be 1210 mg/kg/day; the TD50 (rat, strain Sprague-Dawley, females, by gavage, site: any site (literature study), lesion: several types, types named in the paper, dosed 104 weeks, study length 141 weeks) is 635 mg/kg/day; the TD50 (rat, strain Sprague-Dawley, females, by gavage, site: head, lesion: carcinoma, dosed 104 weeks, study length 123 weeks) is 4170 mg/kg/day; the TD50 (rat, strain Sprague-Dawley, females, by gavage, site: nasal cavity, lesion: carcinoma, dosed 104 weeks, study length 123 weeks) was found to be 18300 mg/kg/day; the TD50 (rat, strain Sprague-Dawley, females, by gavage, site: nasal cavity, lesion: esthesioneuroepithelioma, dosed 104 weeks, study length 123 weeks) turned out to be 18300 mg/kg/day. In addition, the TD50 was 8890 mg/kg/day (rat, strain Sprague-Dawley, females, by gavage, site: oral cavity, lesion: carcinoma, dosed 104 weeks, study length 123 weeks); 1980 mg/kg/day (rat, strain Sprague-Dawley, males, by gavage, site: any site (literature study), lesion: malignant tumor, dosed 104 weeks, study length 141 weeks); 1160 mg/kg/day (rat, strain Sprague-Dawley, males, by gavage, site: any site (literature study), lesion: several types, types named in the paper, dosed 104 weeks, study length 141 weeks); 18300 mg/kg/day (rat, strain Sprague-Dawley, males, by gavage, site: ear duct, lesion: carcinoma, dosed 104 weeks, study length 123 weeks); 4350 mg/kg/day (rat, strain Sprague-Dawley, males, by gavage, site: head, lesion: carcinoma, dosed 104 weeks, study length 123 weeks); 5990 mg/kg/day (rat, strain Sprague-Dawley, males, by gavage, site: nasal cavity, lesion: esthesioneuroepithelioma, dosed 104 weeks, study length 123 weeks). Under “rat, strain Sprague-Dawley, males, by gavage, site: oral cavity, lesion: carcinoma, dosed 104 weeks, study length 123 weeks”, this compound yielded a TD50 of 18300 mg/kg/day.
Regarding `CNC[C@H](O)c1cccc(O)c1`, the TD50 is, setting by setting: (mouse, strain B6C3F1, females, in feed, site: any site (literature study), lesion: several types, types named in the paper, dosed 103 weeks, study length 104 weeks) 911 mg/kg/day (inactive); (mouse, strain B6C3F1, females, in feed, site: liver, lesion: hepatocellular adenoma + hepatocellular carcinoma + neoplastic nodule, dosed 103 weeks, study length 104 weeks) 7850 mg/kg/day; (mouse, strain B6C3F1, females, in feed, site: lung, lesion: alveolar/bronchiolar adenoma + alveolar/bronchiolar carcinoma, dosed 103 weeks, study length 104 weeks) 1610 mg/kg/day; (mouse, strain B6C3F1, males, in feed, site: any site (literature study), lesion: several types, types named in the paper, dosed 103 weeks, study length 104 weeks) 6330 mg/kg/day; (mouse, strain B6C3F1, males, in feed, site: liver, lesion: hepatocellular adenoma + hepatocellular carcinoma + neoplastic nodule, dosed 103 weeks, study length 104 weeks) 4270 mg/kg/day; (mouse, strain B6C3F1, males, in feed, site: lung, lesion: alveolar/bronchiolar adenoma + alveolar/bronchiolar carcinoma, dosed 103 weeks, study length 104 weeks) 2130 mg/kg/day. In addition, the TD50 is 1720 mg/kg/day (mouse, strain B6C3F1, males, in feed, site: multiple organs + spleen, lesion: malignant lymphoma, mixed type, dosed 103 weeks, study length 104 weeks); 1640 mg/kg/day (inactive) (mouse, strain B6C3F1, males, in feed, site: subcutaneous tissue, lesion: fibrosarcoma, dosed 103 weeks, study length 104 weeks); 272 mg/kg/day (inactive) (rat, strain Fischer 344, females, in feed, site: any site (literature study), lesion: several types, types named in the paper, dosed 103 weeks, study length 104 weeks). Moreover, the carcinogen call (rat, strain Fischer 344, males, in feed, site: any site (literature study), lesion: several types, types named in the paper, dosed 103 weeks, study length 104 weeks) was “negative (inactive)”.
In the case of `CC(Oc1cc(Cl)c(Cl)cc1Cl)C(=O)O` (stereo not given), the carcinogen call (mouse, strain B6AKF1, females, oral dosing, site: any site (literature study), lesion: several types, types named in the paper, dosed 76 weeks, study length 76 weeks) was “negative (inactive)”; the carcinogen call (mouse, strain B6AKF1, females, oral dosing, site: liver, lesion: hepatoma, dosed 76 weeks, study length 76 weeks) was “negative (inactive)”; the carcinogen call (mouse, strain B6AKF1, females, oral dosing, site: lung, lesion: adenoma, dosed 76 weeks, study length 76 weeks) was “negative (inactive)”; the carcinogen call (mouse, strain B6AKF1, males, oral dosing, site: any site (literature study), lesion: several types, types named in the paper, dosed 76 weeks, study length 76 weeks) is “negative (inactive)”; the carcinogen call (mouse, strain B6AKF1, males, oral dosing, site: liver, lesion: hepatoma, dosed 76 weeks, study length 76 weeks) is “negative (inactive)”; the carcinogen call (mouse, strain B6AKF1, males, oral dosing, site: lung, lesion: adenoma, dosed 76 weeks, study length 76 weeks) was “negative (inactive)”. For the same compound, the carcinogen call is “negative (inactive)” (mouse, strain B6C3F1, females, oral dosing, site: liver, lesion: hepatoma, dosed 76 weeks, study length 76 weeks) and “negative (inactive)” (mouse, strain B6C3F1, females, oral dosing, site: lung, lesion: several types, types named in the paper, dosed 76 weeks, study length 76 weeks). Further, the TD50 by setting is: (mouse, strain B6C3F1, females, oral dosing, site: any site (literature study), lesion: several types, types named in the paper, dosed 76 weeks, study length 76 weeks) 52.6 mg/kg/day (inactive); (mouse, strain B6C3F1, males, oral dosing, site: any site (literature study), lesion: several types, types named in the paper, dosed 76 weeks, study length 76 weeks) 9.07 mg/kg/day (inactive); (mouse, strain B6C3F1, males, oral dosing, site: liver, lesion: hepatoma, dosed 76 weeks, study length 76 weeks) 16.6 mg/kg/day (inactive); (mouse, strain B6C3F1, males, oral dosing, site: lung, lesion: adenoma, dosed 76 weeks, study length 76 weeks) 95.2 mg/kg/day (inactive).
Regarding `[O]=[Nb](=[O])[OH]`, the carcinogen call (mouse, strain Charles River CD1, both sexes, in drinking water, site: any site (literature study), lesion: malignant tumor, dosed 135 weeks, study length 135 weeks) is “negative (inactive)”; the carcinogen call (mouse, strain Charles River CD1, both sexes, in drinking water, site: any site (literature study), lesion: one or several types, types not named, dosed 135 weeks, study length 135 weeks) is “negative (inactive)”; the carcinogen call (mouse, strain Charles River CD1, both sexes, in drinking water, site: liver, lesion: one or several types, types not named, dosed 135 weeks, study length 135 weeks) is “negative (inactive)”; the carcinogen call (mouse, strain Charles River CD1, both sexes, in drinking water, site: lung, lesion: one or several types, types not named, dosed 135 weeks, study length 135 weeks) was “negative (inactive)”.
In the case of `NC(=O)c1cccnc1`, the carcinogen call runs as follows: (mouse, strain Swiss albino, females, in drinking water, site: lung, lesion: several types, types named in the paper, dosed 113 weeks, study length 113 weeks) “negative (inactive)”; (mouse, strain Swiss albino, males, in drinking water, site: lung, lesion: several types, types named in the paper, dosed 109 weeks, study length 109 weeks) “negative (inactive)”.
In the case of `OCCBr`, the TD50 reads like this: (mouse, strain B6C3F1, females, in drinking water, site: any site (literature study), lesion: several types, types named in the paper, dosed 79 weeks, study length 79 weeks) 73.2 mg/kg/day; (mouse, strain B6C3F1, females, in drinking water, site: forestomach, lesion: squamous-cell papilloma, dosed 79 weeks, study length 79 weeks) 69.7 mg/kg/day; (mouse, strain B6C3F1, females, in drinking water, site: liver, lesion: hemangioma, dosed 79 weeks, study length 79 weeks) 800 mg/kg/day; (mouse, strain B6C3F1, females, in drinking water, site: lung, lesion: papillary tumor, dosed 79 weeks, study length 79 weeks) 1890 mg/kg/day; (mouse, strain B6C3F1, males, in drinking water, site: any site (literature study), lesion: several types, types named in the paper, dosed 78 weeks, study length 78 weeks) 86.6 mg/kg/day; (mouse, strain B6C3F1, males, in drinking water, site: forestomach, lesion: squamous-cell papilloma, dosed 78 weeks, study length 78 weeks) 83.9 mg/kg/day.
